# Columns and labels:
# [1] = target: T1, protein-protein interaction between SOS1 and KRAS G12C (Homo sapiens, UniProt P01116, C118S/C51S/C80L/G12C); test: KRAS::SOS1 AlphaScreen Binding Assay; conditions: Table 20, compounds (I); 7.5 nM KRAS G12C, 10 μM GDP, 5 nM GST-SOS1
# T1 construct: His6 (N); SOS1: in-house or Viva Biotech Ltd; host or cells: E. coli (KRAS)
# Description: This assay can be used to examine the potency with which compounds according to the invention binding to KRAS G12C inhibit the protein-protein interaction between SOS1 and KRAS G12C. […] Low IC50 values in this assay setting are indicative of strong inhibition of protein-protein interaction between SOS1 and KRAS:
# • GST-tagged SOS1 (564_1049_GST_TEV_ECO) produced in-house • GST-TEV-SOS1 (564-1049) is purchased from Viva Biotech Ltd. • The expression construct of KRAS G12C (amino acids 1-169 of reference sequence P01116-2 (uniprot), with additional mutations: C51S, C80L, and C118S) containing a C-terminal avi-tag was obtained by gene synthesis (GeneArt, Thermo Fisher) in donor vector (pDONR-221) and transferred by recombinant cloning into pDEST17 vector bearing an N-terminal His6-tag. The protein was expressed in E. coli and the purified protein was biotinylated with the E. coli biotin ligase (BirA) before usage. • GDP (Sigma Cat No G7127) • AlphaLISA Glutathione Acceptor Beads (PerkinElmer, Cat No AL109) • AlphaScreen Streptavidin Donor Beads (PerkinElmer Cat No 6760002) • Assay plates: Proxiplate-384 PLUS, white (PerkinElmer, Cat No 6008289)
# 7.5 nM (final assay concentration) KRAS G12C, 10 μM (final assay concentration) GDP and 5 nM (final assay concentration) GST-SOS1 are mixed in assay buffer prior to use and kept at room temperature.
# AlphaLISA Glutathione Acceptor Beads and AlphaScreen Streptavidin Donor Beads are mixed in assay buffer at a concentration of 10 μg/mL (final assay concentration) each prior to use and kept at room temperature.
# Compounds are diluted to a final start concentration of 100 μM and are tested in duplicate. Assay-ready plates (ARPs) are generated using an Access Labcyte Workstation with a Labcyte Echo 550 or 555 acoustic dispenser. For compound a start concentration of 100 μM, 150 nL of compound solution is transferred per well in 11 concentrations in duplicate with serial 1:5 dilutions.
# The assay is run using a fully automated robotic system in a darkened room below 100 Lux. 10 μL of KRAS::SOS1 GDP mix is added into columns 1-24 to the 150 nL of compound solution (final dilution in the assay 1:100, final DMSO concentration 1%).
# After 30 minutes incubation time 5 μL of bead mix is added into columns 1-23. Plates are kept at room temperature in a darkened incubator. After further 60 minutes incubation, the signal is measured using a PerkinElmer Envision HTS Multilabel Reader using the AlphaScreen specifications from PerkinElmer. Each plate contains the following controls: • diluted DMSO+KRAS::SOS1 GDP mix+bead mix • diluted DMSO+KRAS::SOS1 GDP mix
# IC50 values are calculated and analyzed using a 4 parametric logistic model.
# Tables of example compounds disclosed herein contain IC50 values determined using the above assay.
# [2] = Metabolic (microsomal) stability assay; type: in vitro ADME; conditions: human liver microsomes 1 mg/mL, 1 μM compound, 37° C.; predicted clearance as percent of liver blood flow
# Procedure: The metabolic degradation of the test compound is assayed at 37° C. with pooled liver microsomes (mouse (MLM), rat (RLM) or human (HLM)). The final incubation volume of 48 μL per time point contains TRIS buffer (pH 7.5; 0.1 M), magnesium chloride (6.5 mM), microsomal protein (0.5 mg/mL for mouse/rat, 1 mg/mL for human specimens) and the test compound at a final concentration of 1 μM. Following a short preincubation period at 37° C., the reactions are initiated by addition of 12 μL beta-nicotinamide adenine dinucleotide phosphate, reduced form (NADPH, 10 mM) and terminated by transferring an aliquot into solvent after different time points (0, 5, 15, 30, 60 min). Additionally, the NADPH-independent degradation is monitored in incubations without NADPH, terminated at the last time point by addition of acetonitrile. The quenched incubations are pelleted by centrifugation (4,000 rpm, 15 min). An aliquot of the supernatant is assayed by LC-MS/MS to quantify the concentration of parent compound in the individual samples.
# In vitro intrinsic clearance (CLint, in vitro) is calculated from the time course of the disappearance of the test drug during the microsomal incubation. Each plot is fitted to the first-order elimination rate constant as C(t)=C0*exp(−ke*t), where C(t) and C0 are the concentration of unchanged test drug at incubation time t and that at preincubation and ke is the disappearance rate constant of the unchanged drug. Subsequently, CLint, in vitro (μL min^−1·amount protein) values are converted to predicted CLint,in vivo (mL min^−1·kg^−1) from incubation parameters according to the equation CLint, in vivo=CLint, in vitro×(incubation volume (ml)/amount protein (mg))×(amount protein (mg)/g liver tissue)×(liver weight/body wt.).
# For better across species comparison the predicted clearance is expressed as percent of the liver blood flow [% QH](mL min^−1 kg^−1) in the individual species. In general, high stability (corresponding to low % QH) of the compounds across species is desired.
# Metabolic stability data obtained with the disclosed assay in HLM for a selection of compounds (I) according to the invention: […]
# CYP3A4 = target: T2, CYP3A4 (Homo sapiens, UniProt P08684); test: Mechanism based inhibition of CYP3A4 assay (MBI 3A4); type: in vitro ADME; conditions: human liver microsomes, 25 uM compound; hydroxy-midazolam formation after 30 min preincubation relative to 0 min
# T2 construct: assayed in human liver microsomes (0.02 mg/mL) with midazolam (15 μM) as a substrate; from tissue; host or cells: human liver microsomes
# T2 sequence (P08684 whole entry): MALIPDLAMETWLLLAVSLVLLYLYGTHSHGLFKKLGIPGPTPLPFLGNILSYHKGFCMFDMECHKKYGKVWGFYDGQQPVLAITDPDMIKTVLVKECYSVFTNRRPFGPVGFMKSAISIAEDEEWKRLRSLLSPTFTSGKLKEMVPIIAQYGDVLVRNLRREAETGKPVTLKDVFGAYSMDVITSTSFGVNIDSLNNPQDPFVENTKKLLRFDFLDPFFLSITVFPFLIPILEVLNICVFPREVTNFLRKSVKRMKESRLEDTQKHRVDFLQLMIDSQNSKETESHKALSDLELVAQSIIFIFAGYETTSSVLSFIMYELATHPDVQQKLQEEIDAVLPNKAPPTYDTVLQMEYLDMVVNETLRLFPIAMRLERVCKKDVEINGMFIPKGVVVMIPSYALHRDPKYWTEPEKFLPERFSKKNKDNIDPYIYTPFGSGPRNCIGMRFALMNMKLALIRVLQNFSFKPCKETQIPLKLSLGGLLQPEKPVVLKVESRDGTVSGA
# Procedure: The time dependent inhibition towards CYP3A4 is assayed in human liver microsomes (0.02 mg/mL) with midazolam (15 μM) as a substrate. The test compounds and water control (wells w/o test compound) are preincubated in presence of NADPH (1 mM) with human liver microsomes (0.2 mg/mL) at a concentration of 25 uM for 0 min and 30 min. After preincubation, the incubate is diluted 1:10 and the substrate midazolam is added for the main incubation (15 min). The main incubation is quenched with acetonitrile and the formation of hydroxy-midazolam is quantified via LC/MS-MS. The formation of hydroxy-midazolam from the 30 min preincubation relative to the formation from the 0 min preincubation is used as a readout. Values of less than 100% mean that the substrate midazolam is metabolized to a lower extent upon 30 min preincubation compared to 0 min preincubation. In general low effects upon 30 min preincubation are desired (corresponding to values close to 100%/not different to the values determined with water control).
# Data obtained with the disclosed assay for a selection of compounds (I) according to the invention: […]
# T1 sequence (P01116 1-169 isoform P01116-2 G12C/C51S/C80L/C118S): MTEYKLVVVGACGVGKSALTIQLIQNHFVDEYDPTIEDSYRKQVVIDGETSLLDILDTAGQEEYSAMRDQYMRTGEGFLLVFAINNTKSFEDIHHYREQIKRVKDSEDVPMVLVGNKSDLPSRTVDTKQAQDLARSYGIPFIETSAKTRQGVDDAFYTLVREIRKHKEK
SMILES,IC50 [1] [nM],HLM QH [2] [%],MBI 3A4 (CYP3A4) [%]
C=CC(=O)N1[C@@H](C)CN(c2cc(O[C@@H](C)[C@@H]3CCCN3C)nc(-c3noc4c3CCC[C@@]43CCCc4sc(N)c(C#N)c43)n2)C[C@@H]1C [Ib-3],1.5,34,65
C=CC(=O)N1[C@@H](C)CN(c2cc(O[C@@H](C)[C@@H]3CCCN3C)nc(-c3onc4c3CCC[C@@]43CCCc4sc(N)c(C#N)c43)n2)C[C@@H]1C [Ia-2],< 1.5,<24,62
C=C(F)C(=O)N1[C@@H](C)CN(c2cc(O[C@@H](C)[C@@H]3CCCN3C)nc(-c3onc4c3CCC[C@@]43CCCc4sc(N)c(C#N)c43)n2)C[C@@H]1C [Ia-1],1.6,<24,61
C=C(F)C(=O)N1[C@@H](C)CN(c2cc(O[C@@H](C)[C@@H]3CCCN3C)nc(-c3noc4c3CCC[C@@]43CCCc4sc(N)c(C#N)c43)n2)C[C@@H]1C [Ib-5],1.6,<24,69
C=C(F)C(=O)N1[C@@H](C)CN(c2cc(-c3onc4c3CCC[C@@]43CCCc4sc(N)c(C#N)c43)nc(O[C@@H](C)[C@@H]3CCCN3C)n2)C[C@@H]1C [Ia-3],4,41,–
C=CC(=O)N1[C@@H](C)CN(c2cc(-c3noc4c3CCC[C@@]43CCCc4sc(N)c(C#N)c43)nc(O[C@@H](C)[C@@H]3CCCN3C)n2)C[C@@H]1C [Ib-4],1.4,45,78
C[C@H](Oc1cc(N2C[C@H](C)N(C(=O)/C=C/CF)[C@@H](C)C2)nc(-c2noc3c2CCC[C@@]32CCCc3sc(N)c(C#N)c32)n1)[C@@H]1CCCN1C [Ib-1],1.7,<24,–
C=CC(=O)N1[C@@H](C)CN(c2cc(-c3onc4c3CCC[C@@]43CCCc4sc(N)c(C#N)c43)nc(O[C@@H](C)[C@@H]3CCCN3C)n2)C[C@@H]1C [Ia-4],1.6,28,–
C=CC(=O)N1CCN(c2cc(O[C@@H](C)[C@@H]3CCCN3C)nc(-c3noc4c3CCC[C@@]43CCCc4sc(N)c(C#N)c43)n2)CC12CC2 [Ib-2],1.3,<24,–

# More lines, now with the values ahead:
IC50 [1] [nM],HLM QH [2] [%],MBI 3A4 (CYP3A4) [%],SMILES
3.2,49,–,C[C@H](Oc1nc(-c2noc3c2CCC[C@@]32CCCc3sc(N)c(C#N)c32)cc(N2C[C@H](C)N(C(=O)/C=C/c3cccnc3)[C@@H](C)C2)n1)[C@@H]1CCCN1C [Ib-8]
2.1,72,64,C=C(F)C(=O)N1[C@@H](C)CN(c2cc(-c3noc4c3CCC[C@@]43CCCc4sc(N)c(C#N)c43)nc(O[C@@H](C)[C@@H]3CCCN3C)n2)C[C@@H]1C [Ib-6]
6.2,76,68,COC/C=C/C(=O)N1[C@@H](C)CN(c2cc(-c3noc4c3CCC[C@@]43CCCc4sc(N)c(C#N)c43)nc(O[C@@H](C)[C@@H]3CCCN3C)n2)C[C@@H]1C [Ib-9]
3.1,64,62,C[C@H](Oc1nc(-c2noc3c2CCC[C@@]32CCCc3sc(N)c(C#N)c32)cc(N2C[C@H](C)N(C(=O)/C=C/CF)[C@@H](C)C2)n1)[C@@H]1CCCN1C [Ib-7]
